Measured values as given in ChEMBL document CHEMBL5500393, “Discovery and Optimization of Novel SaFabI Inhibitors as Specific Therapeutic Agents for MRSA Infection” (J Med Chem, 2024).
≈ marks a conversion by molar mass, not a printed value.

Tests used:
Escherichia coli = test: Antimicrobial activity against Escherichia coli ATCC25922 measured after 24 hrs by CLSI protocol based microdilution method; assay type: functional
Enterococcus faecium = test: Antimicrobial activity against Enterococcus faecium ATCC19434 measured after 24 hrs by CLSI protocol based microdilution method; assay type: functional
Staphylococcus aureus [1] = test: Antimicrobial activity against methicillin-susceptible Staphylococcus aureus ATCC25923 measured after 24 hrs by CLSI protocol based microdilution method; assay type: functional
Staphylococcus aureus [2] = test: Antimicrobial activity against […] Staphylococcus aureus ATCC43300 measured after 24 hrs by CLSI protocol based microdilution method; assay type: functional
[3] = biological target: T1, Enoyl-[acyl-carrier-protein] reductase [NADPH] FabI (Staphylococcus aureus) (UniProt Q6GI75); test: Inhibition of N-terminal his 6 tagged Staphylococcus aureus Fabi (1 to […] residues) expressed in Escherichia coli BL21 at 10 uM incubated for 30 mins in presence of NADPH by fluorescence based microplate reader analysis relative to control
T1 sequence (whole entry): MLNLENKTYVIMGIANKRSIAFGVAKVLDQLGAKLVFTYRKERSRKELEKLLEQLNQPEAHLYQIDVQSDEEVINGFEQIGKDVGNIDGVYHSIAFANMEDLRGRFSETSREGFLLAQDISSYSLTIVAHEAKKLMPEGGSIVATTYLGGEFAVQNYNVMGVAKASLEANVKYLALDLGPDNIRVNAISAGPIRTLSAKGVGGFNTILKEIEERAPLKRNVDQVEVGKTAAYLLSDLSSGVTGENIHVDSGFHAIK

Acinetobacter baumannii = test: Antimicrobial activity against Acinetobacter baumannii ATCC19606 measured after 24 hrs by CLSI protocol based microdilution method; assay type: functional
Staphylococcus aureus [4] = test: Antimicrobial activity against […] Staphylococcus aureus NRS271 measured after 24 hrs by CLSI protocol based microdilution method; assay type: functional
Staphylococcus aureus [5] = test: Antimicrobial activity against […] Staphylococcus aureus ATCC33591 measured after 24 hrs by CLSI protocol based microdilution method; assay type: functional
Pseudomonas aeruginosa = test: Antimicrobial activity against Pseudomonas aeruginosa PAO1 measured after 24 hrs by CLSI protocol based microdilution method; assay type: functional
[6] = biological target: T1, Enoyl-[acyl-carrier-protein] reductase [NADPH] FabI (Staphylococcus aureus); test: Inhibition of N-terminal his 6 tagged Staphylococcus aureus Fabi (1 to […] residues) expressed in Escherichia coli BL21 at 1 uM incubated for 30 mins in presence of NADPH by fluorescence based microplate reader analysis relative to control
Enterococcus faecalis = test: Antimicrobial activity against Enterococcus faecalis ATCC29212 measured after 24 hrs by CLSI protocol based microdilution method; assay type: functional
[7] = biological target: T2, Enoyl-[acyl-carrier-protein] reductase [NADPH] FabI (Staphylococcus aureus, UniProt Q6GI75); test: Inhibition of N-terminal his 6 tagged Staphylococcus aureus Fabi (1 to […] residues) expressed in Escherichia coli BL21 incubated for 30 mins in presence of NADPH by fluorescence based microplate reader analysis
T2 sequence (Q6GI75 whole entry): T1 sequence (whole entry)

Candida albicans = test: Antimicrobial activity against Candida albicans SC5314 measured after 48 hrs by CLSI protocol based microdilution method; assay type: functional
Staphylococcus aureus [8] = test: Antimicrobial activity against methicillin-susceptible Staphylococcus aureus ATCC29213 measured after 24 hrs by CLSI protocol based microdilution method; assay type: functional
Staphylococcus aureus [9] = test: Antimicrobial activity against […] Staphylococcus aureus USA300 measured after 24 hrs by CLSI protocol based microdilution method; assay type: functional

Structure (SMILES) | MIC (Escherichia coli) | MIC (Enterococcus faecium) | MIC (Staphylococcus aureus [1]) | MIC (Staphylococcus aureus [2]) | inhibition [3] | MIC (Acinetobacter baumannii) | MIC (Staphylococcus aureus [4]) | MIC (Staphylococcus aureus [5]) | MIC (Pseudomonas aeruginosa) | inhibition [6] | MIC (Enterococcus faecalis) | IC50 [7] | MIC (Candida albicans) | MIC (Staphylococcus aureus [8]) | MIC (Staphylococcus aureus [9])
Cc1ccccc1N1CC(c2nc3ccccc3n2C)CC1=O (configuration not stated) | > 32 µg/mL | > 32 µg/mL | 32 µg/mL (≈ 105 µM) | 32 µg/mL (≈ 105 µM) | 85.2% | > 32 µg/mL | 16 µg/mL (≈ 52.4 µM) | 16 µg/mL (≈ 52.4 µM) | > 32 µg/mL | 18.3% | > 32 µg/mL | 2410 nM | > 32 µg/mL | 16 µg/mL (≈ 52.4 µM) | 32 µg/mL (≈ 105 µM)
Cc1c(N2CC(c3nc4ccccc4n3C)CC2=O)cccc1C(F)(F)F (configuration not stated) | > 32 µg/mL | > 32 µg/mL | 8 µg/mL (≈ 21.4 µM) | 4 µg/mL (≈ 10.7 µM) | 93.9% | > 32 µg/mL | 8 µg/mL (≈ 21.4 µM) | 4 µg/mL (≈ 10.7 µM) | > 32 µg/mL | 66.1% | > 32 µg/mL | 632 nM | > 32 µg/mL | 4 µg/mL (≈ 10.7 µM) | 8 µg/mL (≈ 21.4 µM)
Cn1c(C2CC(=O)N(c3cccc4ccccc34)C2)nc2ccccc21 (configuration not stated) | > 32 µg/mL | > 32 µg/mL | 8 µg/mL (≈ 23.4 µM) | 16 µg/mL (≈ 46.9 µM) | 96.9% | > 32 µg/mL | 16 µg/mL (≈ 46.9 µM) | 8 µg/mL (≈ 23.4 µM) | > 32 µg/mL | 48.4% | > 32 µg/mL | 1080 nM | > 32 µg/mL | 8 µg/mL (≈ 23.4 µM) | 8 µg/mL (≈ 23.4 µM)
Cn1c(C2CC(=O)N(c3cccc(F)c3F)C2)nc2ccccc21 (configuration not stated) | > 32 µg/mL | > 32 µg/mL | 32 µg/mL (≈ 97.8 µM) | 32 µg/mL (≈ 97.8 µM) | 91.8% | > 32 µg/mL | 32 µg/mL (≈ 97.8 µM) | 16 µg/mL (≈ 48.9 µM) | > 32 µg/mL | 35.3% | > 32 µg/mL | 227 nM | > 32 µg/mL | 16 µg/mL (≈ 48.9 µM) | 16 µg/mL (≈ 48.9 µM)
COc1cccc(N2CC(c3nc4ccccc4n3C)CC2=O)c1C (configuration not stated) | > 32 µg/mL | > 32 µg/mL | 32 µg/mL (≈ 95.4 µM) | 32 µg/mL (≈ 95.4 µM) | 88.2% | > 32 µg/mL | 16 µg/mL (≈ 47.7 µM) | > 32 µg/mL | > 32 µg/mL | 27.9% | > 32 µg/mL | 2270 nM | > 32 µg/mL | 16 µg/mL (≈ 47.7 µM) | 16 µg/mL (≈ 47.7 µM)
Cc1c(Br)cccc1N1CC(c2nc3cc(F)c(F)cc3n2C)CC1=O (configuration not stated) | > 32 µg/mL | > 32 µg/mL | > 32 µg/mL | > 32 µg/mL | 66.7% | > 32 µg/mL | > 32 µg/mL | > 32 µg/mL | > 32 µg/mL | 3.2% | > 32 µg/mL | 5290 nM | > 32 µg/mL | 32 µg/mL (≈ 76.1 µM) | > 32 µg/mL
Cc1cccc(N2CC(c3nc4ccccc4n3C)CC2=O)c1 (configuration not stated) | > 32 µg/mL | > 32 µg/mL | > 32 µg/mL | > 32 µg/mL | 67.7% | > 32 µg/mL | > 32 µg/mL | > 32 µg/mL | > 32 µg/mL | 4.9% | > 32 µg/mL | 5700 nM | > 32 µg/mL | > 32 µg/mL | > 32 µg/mL
Cn1c(C2CC(=O)N(c3cccc(Br)c3O)C2)nc2ccccc21 (configuration not stated) | > 32 µg/mL | > 32 µg/mL | 32 µg/mL (≈ 82.8 µM) | 16 µg/mL (≈ 41.4 µM) | 94.1% | > 32 µg/mL | 32 µg/mL (≈ 82.8 µM) | 16 µg/mL (≈ 41.4 µM) | > 32 µg/mL | 28.5% | > 32 µg/mL | 1880 nM | > 32 µg/mL | 16 µg/mL (≈ 41.4 µM) | 16 µg/mL (≈ 41.4 µM)
COc1ccc(N2CC(c3nc4ccccc4n3C)CC2=O)cc1Br (configuration not stated) | > 32 µg/mL | > 32 µg/mL | > 32 µg/mL | > 32 µg/mL | 72.3% | > 32 µg/mL | > 32 µg/mL | > 32 µg/mL | > 32 µg/mL | 9.4% | > 32 µg/mL | 3020 nM | > 32 µg/mL | > 32 µg/mL | > 32 µg/mL
Cc1c(Br)cccc1N1CC(c2nc3ccccc3n2C(C)C)CC1=O (configuration not stated) | > 32 µg/mL | > 32 µg/mL | 16 µg/mL (≈ 38.8 µM) | 16 µg/mL (≈ 38.8 µM) | 87% | > 32 µg/mL | 32 µg/mL (≈ 77.6 µM) | 16 µg/mL (≈ 38.8 µM) | > 32 µg/mL | 21.1% | > 32 µg/mL | 1730 nM | > 32 µg/mL | 8 µg/mL (≈ 19.4 µM) | 16 µg/mL (≈ 38.8 µM)
Cn1c(C2CC(=O)N(c3ccc(O)c(O)c3)C2)nc2ccccc21 (configuration not stated) | > 32 µg/mL | > 32 µg/mL | > 32 µg/mL | > 32 µg/mL | 70.4% | > 32 µg/mL | > 32 µg/mL | > 32 µg/mL | > 32 µg/mL | 10.7% | > 32 µg/mL | 5190 nM | > 32 µg/mL | > 32 µg/mL | > 32 µg/mL
Cn1ccc2c(N3CC(c4nc5ccccc5n4C)CC3=O)cccc21 (configuration not stated) | > 32 µg/mL | > 32 µg/mL | > 32 µg/mL | > 32 µg/mL | 62.1% | > 32 µg/mL | > 32 µg/mL | > 32 µg/mL | > 32 µg/mL | 9.8% | > 32 µg/mL | 8330 nM | > 32 µg/mL | > 32 µg/mL | > 32 µg/mL
CCCn1c(C2CC(=O)N(c3cccc(Br)c3C)C2)nc2ccccc21 (configuration not stated) | > 32 µg/mL | > 32 µg/mL | 4 µg/mL (≈ 9.7 µM) | 4 µg/mL (≈ 9.7 µM) | 99.5% | > 32 µg/mL | 8 µg/mL (≈ 19.4 µM) | 8 µg/mL (≈ 19.4 µM) | > 32 µg/mL | 57.6% | > 32 µg/mL | 745 nM | > 32 µg/mL | 4 µg/mL (≈ 9.7 µM) | 8 µg/mL (≈ 19.4 µM)
Cc1cccc(N2CC(c3nc4ccccc4n3C)CC2=O)c1Br (configuration not stated) | > 32 µg/mL | > 32 µg/mL | 8 µg/mL (≈ 20.8 µM) | 32 µg/mL (≈ 83.3 µM) | 92.6% | > 32 µg/mL | 32 µg/mL (≈ 83.3 µM) | 16 µg/mL (≈ 41.6 µM) | > 32 µg/mL | 30.1% | > 32 µg/mL | 1690 nM | > 32 µg/mL | 16 µg/mL (≈ 41.6 µM) | 16 µg/mL (≈ 41.6 µM)
Cc1c(O)cccc1N1CC(c2nc3ccccc3n2C)CC1=O (configuration not stated) | > 32 µg/mL | > 32 µg/mL | 8 µg/mL (≈ 24.9 µM) | 8 µg/mL (≈ 24.9 µM) | 96.9% | > 32 µg/mL | 8 µg/mL (≈ 24.9 µM) | 4 µg/mL (≈ 12.4 µM) | > 32 µg/mL | 61.7% | > 32 µg/mL | 650 nM | > 32 µg/mL | 8 µg/mL (≈ 24.9 µM) | 8 µg/mL (≈ 24.9 µM)
Cc1c(N2CC(c3nc4ccccc4n3C)CC2=O)cccc1[N+](=O)[O-] (configuration not stated) | > 32 µg/mL | > 32 µg/mL | 16 µg/mL (≈ 45.7 µM) | 16 µg/mL (≈ 45.7 µM) | 98% | > 32 µg/mL | 32 µg/mL (≈ 91.3 µM) | 16 µg/mL (≈ 45.7 µM) | > 32 µg/mL | 42.8% | > 32 µg/mL | 1520 nM | > 32 µg/mL | 8 µg/mL (≈ 22.8 µM) | 16 µg/mL (≈ 45.7 µM)
Cc1cccc(NC(=O)CCNC(=O)CCc2nc3ccccc3n2C)c1C | > 32 µg/mL | > 32 µg/mL | > 32 µg/mL | > 32 µg/mL | 33.2% | > 32 µg/mL | > 32 µg/mL | > 32 µg/mL | > 32 µg/mL | 6.9% | > 32 µg/mL |  | > 32 µg/mL | > 32 µg/mL | > 32 µg/mL
Cc1cccc(NC(=O)c2nc3ccccc3n2C)c1C | > 32 µg/mL | > 32 µg/mL | > 32 µg/mL | > 32 µg/mL | 8.9% | > 32 µg/mL | > 32 µg/mL | > 32 µg/mL | > 32 µg/mL | 5.2% | > 32 µg/mL |  | > 32 µg/mL | > 32 µg/mL | > 32 µg/mL
Cn1c(C(=O)Nc2cccc(C(=O)NCc3ccccc3)c2)nc2ccccc21 | > 32 µg/mL | > 32 µg/mL | > 32 µg/mL | > 32 µg/mL | 4% | > 32 µg/mL | > 32 µg/mL | > 32 µg/mL | > 32 µg/mL | 6.8% | > 32 µg/mL |  | > 32 µg/mL | > 32 µg/mL | > 32 µg/mL
